These results are taken from ChEMBL document CHEMBL1134671, “Novel lead generation through hypothetical pharmacophore three-dimensional database searching: discovery of isoflavonoids as nonsteroidal inhibitors of rat 5 alpha-reductase” (J Med Chem, 2001).

Molecules are shown by their SMILES.

This test has as its target T1, Steroid 5-alpha-reductase (Rattus norvegicus, UniProt P24008+P31214).
T1 sequence (P24008 whole entry): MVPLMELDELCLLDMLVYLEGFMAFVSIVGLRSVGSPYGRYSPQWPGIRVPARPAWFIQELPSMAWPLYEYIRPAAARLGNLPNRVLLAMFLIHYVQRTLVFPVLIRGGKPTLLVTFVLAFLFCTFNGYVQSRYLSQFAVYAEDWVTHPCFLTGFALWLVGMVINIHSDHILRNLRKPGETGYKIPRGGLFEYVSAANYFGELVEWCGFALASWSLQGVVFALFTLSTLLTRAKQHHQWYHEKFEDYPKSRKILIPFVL
T1 sequence (P31214 whole entry): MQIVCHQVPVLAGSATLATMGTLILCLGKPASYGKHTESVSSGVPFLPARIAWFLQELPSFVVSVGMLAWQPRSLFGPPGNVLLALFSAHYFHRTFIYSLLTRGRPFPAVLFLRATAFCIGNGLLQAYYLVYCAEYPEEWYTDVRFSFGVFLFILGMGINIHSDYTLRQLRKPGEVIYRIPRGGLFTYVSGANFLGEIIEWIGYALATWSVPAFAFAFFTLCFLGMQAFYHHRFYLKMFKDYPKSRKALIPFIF
Description: Inhibitory concentration against rat Steroid 5-alpha-reductase. It is filed as protein assay.
The IC50 is the concentration that inhibits the measured activity by half. For `COc1cc2c(cc1OC)-c1c(oc3c4c(cc(O)c3c1=O)OC(C)(C)C=C4)CO2`, the 50% inhibitory concentration (IC50) came out at 48.7 µM. Then `CC(C)(O)C1Cc2c(ccc(-c3coc4cc(O)cc(O)c4c3=O)c2O)O1` (stereo not drawn), with 23.1 µM; and `C=C(C)C1Cc2c(cc3occ(-c4ccc(O)cc4O)c(=O)c3c2O)O1` (stereo not drawn), with 15.7 µM. As for `CC(C)(O)C1Cc2c(O)ccc(-c3coc4cc(O)cc(O)c4c3=O)c2O1` (stereo not drawn), the figure is 6.9 µM. On to `COc1cc2c(c3occ(-c4ccc(OCc5ccccc5)cc4OCc4ccccc4)c(=O)c13)C=CC(C)(C)O2`, for which the concentration for half-maximal inhibition (IC50) turned out to be 27.4 µM. Compared with the last compound, the IC50 is about 4-fold higher. `COc1ccc(-c2coc3c4c(cc(OC)c3c2=O)OC(C)(C)C=C4)c(OC)c1` displayed an IC50 of 30.1 µM. This IC50 and that of the compound before are within 1.5-fold of each other.

Take `CC(C)(O)C1Cc2c(ccc(-c3coc4cc5c(c(O)c4c3=O)CC(C(C)(C)O)O5)c2O)O1` (stereo not drawn): the IC50 amounted to 26.2 µM. This IC50 and that of the compound before are within 1.5-fold of each other.

`COc1cc2c(c3occ(-c4ccc(OCc5ccccc5)cc4OCc4ccccc4)c(=O)c13)C(=O)CC(C)(C)O2` displayed a concentration for half-maximal inhibition (IC50) of 31 µM.
